This test has as its system porcine model of ventricular fibrillation. The settings on record: pigs, standard CPR, 2 minutes after drug administration.

Protocol: Vital organ blood flow was also assessed after four minutes of ventricular fibrulation, four minutes of standard CPR, and two minutes after drug administration.

For `CNC[C@H](O)c1ccc(O)c(O)c1` [epinephrine], the “endocardial:epicardial ratio (mean±SEM)” value is given as 0.81±0.21.

The values are drawn from patent US6486206B1, “Mechanical and pharmacologic therapies to treat cardiac arrest” (CPRx Inc., priority 1997, dated 2002).
